In ChEMBL document CHEMBL1132017, “In vitro susceptibility of Helicobacter pylori to trifluoromethyl ketones” (1999):
In brackets after ≈: the same amount, converted by molar mass.

System: Helicobacter pylori
Assay: In vitro inhibitory activity evaluated against Helicobacter pylori (HP)
Type: functional

SMILES | MIC50 [µg/mL]
O=C(Cc1ccccc1)C(F)(F)F | > 100
O=C(c1ccccc1)C(F)(F)F | > 100
O=C(Cc1ccccn1)C(F)(F)F | > 100
CC(=O)Cc1nc2ccccc2o1 | 51 (≈ 291 µM)
Cc1nc(CC(=O)C(F)(F)F)oc1C | > 100
O=C(c1cccs1)C(F)(F)F | 53 (≈ 294 µM)
O=C(Cc1nc2ccccc2s1)C(F)(F)F | 70 (≈ 285 µM)
O=C(c1nc2ccccc2o1)C(F)(F)F | > 100
Cn1c(C(=O)C(F)(F)F)cnc1-c1ccccc1 | > 100
O=C(c1ccc[nH]1)C(F)(F)F | > 100
O=C(c1c[nH]c2ccccc12)C(F)(F)F | 12 (≈ 56.3 µM)
O=C(Cc1nc2ccccc2o1)C(F)(F)F | 3.6 (≈ 15.7 µM)
O=C(Cc1nc2ccccc2[nH]1)C(F)(F)F | 52 (≈ 228 µM)
CC[C@H]1OC(=O)[C@H](C)[C@@H](O[C@H]2C[C@@](C)(OC)[C@@H](O)[C@H](C)O2)[C@H](C)[C@@H](O[C@@H]2O[C@H](C)C[C@H](N(C)C)[C@H]2O)[C@](C)(OC)C[C@@H](C)C(=O)[C@H](C)[C@@H](O)[C@]1(C)O [CLARITHROMYCIN] | 1.9 (≈ 2.54 µM)
CC[C@H]1OC(=O)[C@H](C)[C@@H](O[C@H]2C[C@@](C)(OC)[C@@H](O)[C@H](C)O2)[C@H](C)[C@@H](O[C@@H]2O[C@H](C)C[C@H](N(C)C)[C@H]2O)[C@](C)(O)C[C@@H](C)C(=O)[C@H](C)[C@@H](O)[C@]1(C)O [ERYTHROMYCIN] | 1.8 (≈ 2.45 µM)
Cc1ncc([N+](=O)[O-])n1CCO [METRONIDAZOLE] | 74 (≈ 432 µM)
